Experimental data reported in US20210000806A1, “COMPOSITIONS AND METHODS FOR TREATING INFLAMMATORY BOWEL DISEASE AND FUSOBACTERIA-CAUSED OR RELATED DISEASES AND CONDITIONS” (priority 2018, published 2021).

Assays:
[1] = test system: ulcerative colitis; assay: Case report: patient with ulcerative colitis (pancolitis) treated with secnidazole, rifampicin and doxycycline; assay type: in vivo, human; details: patient history before the antibiotic combination
Description: A patient with a 12 year history of ulcerative colitis presented with 4-15 diarrhoeal stools every day and 2-3 at night.
They were commenced on secnidazole (400 mg three times daily) combined with rifampicin (increasing from 150 mg twice daily to 300 mg twice daily after four weeks), together with doxycycline (50 mg twice daily).
They then continued on the same regimen a further six months when a colonoscopy was repeated.

[2] = test system: inflammatory bowel disease (IBD); assay: Inventor's clinical experience with higher-dose rifaximin in colitis / IBD; assay type: in vivo, human
Text: Current doses are almost always an under-dosing with rifaximin; and there is no external dose reference or independent dose ranging study in colitis to be guided by.

Cn1cnc([N+](=O)[O-])c1Sc1ncnc2nc[nH]c12 [azathioprine]
response to previous anti-inflammatory medications [1]: not achieving more than a transient response

Nc1ccc(O)c(C(=O)O)c1 [mesalazine]
response to previous anti-inflammatory medications [1]: not achieving more than a transient response

C[C@]12C=CC(=O)C=C1CC[C@@H]1[C@@H]2C(=O)C[C@@]2(C)[C@H]1CC[C@]2(O)C(=O)CO [prednisone]
response to previous anti-inflammatory medications [1]: not achieving more than a transient response

CO[C@H]1/C=C/O[C@@]2(C)Oc3c(C)c(O)c4c(O)c(c5c(nc6cc(C)ccn65)c4c3C2=O)NC(=O)/C(C)=C\C=C\[C@H](C)[C@H](O)[C@@H](C)[C@@H](O)[C@@H](C)[C@H](OC(C)=O)[C@@H]1C [rifaximin]
inhibiting inflammation by inhibiting the infection(s) ([2]; higher dose spread over 3 doses/day (3.3 g per day) versus current recommended doses (550 mg twice daily)): works far better
remission with rifaximin alone ([2]; only using the higher and more frequent dosing): can be used to achieve remission
